In patent US20200031778A1, “NOVEL 5-SUBSTITUTED IMIDAZOLYLMETHYL DERIVATIVES” (Bayer CropScience Aktiengesellschaft, priority 2016, published 2020):

Assay: Log P by HPLC on reversed phase columns (EEC directive 79/831 Annex V.A8; methods [a], [b], [c])
Format: physicochemical
Protocol: Measurement of Log P values was performed according to EEC directive 79/831 Annex V.A8 by HPLC (High Performance Liquid Chromatography) on reversed phase columns with the following methods: • ^[a] Log P value is determined by measurement of LC-UV, in an acidic range, with 0.1% formic acid in water and acetonitrile as eluent (linear gradient from 10% acetonitrile to 95% acetonitrile). • ^[b] Log P value is determined by measurement of LC-UV, in a neutral range, with 0.001 molar ammonium acetate solution in water and acetonitrile as eluent (linear gradient from 10% acetonitrile to 95% acetonitrile). • ^[c] Log P value is determined by measurement of LC-UV, in an acidic range, with 0.1% phosphoric acid and acetonitrile as eluent (linear gradient from 10% acetonitrile to 95% acetonitrile).
If more than one Log P value is available within the same method, all the values are given and separated by “+”.
Calibration was done with straight-chain alkan2-ones (with 3 to 16 carbon atoms) with known Log P values (measurement of Log P values using retention times with linear interpolation between successive alkanones). Lambda-max-values were determined using UV-spectra from 200 nm to 400 nm and the peak values of the chromatographic signals.

Row | SMILES | LogP
1 | N#Cc1cncn1CC(O)c1cnc(Oc2ccc(C(F)(F)F)nc2)cc1C(F)(F)F (centres unmarked) [I-118] | 2.46^[a]
2 | CC(C)(C)CC(O)(Cn1cncc1C#N)c1ccc(C(F)(F)F)cc1F (centres unmarked) [I-273] | 3.55^[a]
3 | C#CCOC(Cn1cncc1F)c1ccc(Oc2ccc(Cl)cc2)cc1C(F)(F)F (centres unmarked) [I-106] | 3.26^[a]
4 | N#Cc1cncn1CC(O)(c1ccc(C2CC2C2CC2)cc1Cl)C1(F)CC1 (centres unmarked) [I-388] | 3.60^[a]
5 | N#Cc1cncn1CC(O)(c1cc(F)ccc1Cl)C1(Cl)CC1 (centres unmarked) [I-338] | 2.30^[a]
6 | COC(Cn1cncc1C#N)c1ccc(Oc2ccccc2)cc1F (centres unmarked) [I-100] | 3.23^[a]
7 | CC(C)(C)CC(O)(Cn1cncc1C#N)c1ccccc1Cl (centres unmarked) [I-309] | 3.17^[a]
8 | CCC(O)(Cn1cncc1C#N)c1ccc(Cl)cc1 (centres unmarked) [I-222] | 2.32^[a]
9 | CC(C)(C)CC(O)(Cn1cncc1C#N)C1(F)CC1 (centres unmarked) [I-374] | 2.44^[a]
10 | CC(C)(C)C(O)(Cn1cncc1C#N)c1ccc(Cl)c(Cl)c1 (centres unmarked) [I-456] | 3.16^[a]
11 | Cn1ccc2cc(C(O)(Cn3cncc3C#N)CC(C)(C)C)ccc21 (centres unmarked) [I-377] | 2.94^[a]
12 | CC(O)(Cn1cncc1C#N)c1cnc(Oc2ccc(Br)cc2)cc1C(F)F (centres unmarked) [I-258] | 2.68^[a]
13 | OC(Cn1cncc1Cl)c1ccc(Oc2ccc(Cl)cn2)cc1C(F)(F)F (centres unmarked) [I-65] | 2.21^[a]
14 | CC(C)C(O)(Cn1cncc1C#N)c1ccc(F)cc1F (centres unmarked) [I-419] | 2.35^[a]
15 | OC(Cn1cncc1F)c1cnc(Oc2ccc(Cl)cc2)cc1C(F)(F)F (centres unmarked) [I-119] | 2.23^[a]
16 | C=CCC(O)(Cn1cncc1C#N)C1(F)CC1 (centres unmarked) [I-664] | 1.56^[a]
17 | C=C(C)CC(O)(Cn1cncc1C#N)C1(Cl)CC1 (centres unmarked) [I-675] | 2.35^[a]
18 | C[Si](C)(C)C#CC(O)(Cn1cncc1C#N)C1(F)CC1 (centres unmarked) [I-600] | 2.45^[a]
19 | N#Cc1cncn1CC(O)(c1ccc(C#CC2CCCC2)cc1F)C1(Cl)CC1 (centres unmarked) [I-649] | 3.99^[a]
20 | N#Cc1cncn1CC(O)(c1c(F)cc(F)cc1Cl)C1(F)CC1 (centres unmarked) [I-574] | 2.23^[a]
21 | N#Cc1cncn1CC(O)(C#Cc1ccccc1)C1(F)CC1 (centres unmarked) [I-371] | 2.20^[a]
22 | N#Cc1cncn1CC(O)(c1ccc(F)c(Cl)c1Cl)C1(Cl)CC1 (centres unmarked) [I-618] | 2.58^[a]
23 | CC(O)(Cn1cncc1C#N)c1ccc(Oc2ccc(Cl)cc2)cc1Br (centres unmarked) [I-216] | 3.50^[a]
24 | CC(O)(Cn1cncc1F)c1cnc(Oc2ccc(Br)cc2)cc1C(F)(F)F (single isomer, unassigned) [I-220] | 2.37^[a]
25 | CC(O)(Cn1cncc1C#N)c1ccc(Oc2ccc(C(F)(F)F)nc2)nc1C(F)(F)F (centres unmarked) [I-294] | 2.76^[a]

Row | SMILES | LogP
26 | N#Cc1cncn1CC(O)(c1ccc(F)c(F)c1F)C1(Cl)CC1 (centres unmarked) [I-626] | 2.37^[a]
27 | N#Cc1cncn1CC(O)(c1cc(F)c(Cl)c(Cl)c1)C1(F)CC1 (centres unmarked) [I-535] | 2.78^[a]
28 | CCCC(O)(Cn1cncc1C#N)c1ccc(Cl)cc1C(F)(F)F (centres unmarked) [I-461] | 3.05^[a]
29 | N#Cc1cncn1CC(O)(c1ccc(Cl)nc1Br)C1(F)CC1 (centres unmarked) [I-556] | 1.99^[a]
30 | CCCCC(O)(Cn1cncc1C#N)c1ccccc1Cl (centres unmarked) [I-282] | 2.80^[a]
31 | N#Cc1cncn1CC(O)(CC1CC1)c1cc(F)cc(Br)c1 (centres unmarked) [I-532] | 2.65^[a]
32 | CC(O)(Cn1cncc1Cl)c1ccc(Oc2ccc(OC(F)(F)F)cc2)cc1Cl (centres unmarked) [I-158] | 3.06^[a]
33 | CC(=O)c1cncn1CC(C)(O)c1cnc(Oc2ccc(C(F)(F)F)cc2)cc1Br (centres unmarked) [I-252] | 2.84^[a]
34 | N#Cc1cncn1CC(O)(c1cc(F)cc(F)c1)C1(F)CC1 (centres unmarked) [I-473] | 2.14^[a]
35 | CC(C)C(O)(Cn1cncc1C#N)c1ccc(Cl)cc1Br (centres unmarked) [I-416] | 3.02^[a]
36 | N#Cc1ccc(C(O)(Cn2cncc2C#N)C2(F)CC2)c(Cl)c1 (centres unmarked) [I-389] | 2.04^[a]
37 | N#Cc1cncn1CC(O)(c1cc(F)c(Br)cc1Cl)C1(F)CC1 (centres unmarked) [I-682] | 2.63^[a]
38 | CC(O)(Cn1cncc1C#N)c1ccc(Oc2ccc(Br)cc2)cc1F (centres unmarked) [I-191] | 3.29^[a]
39 | N#Cc1cncn1CC(O)(CCC1CCCC1)C1(Cl)CC1 (centres unmarked) [I-596] | 3.37^[a]
40 | N#Cc1cncn1CC(O)(c1ccc(Cl)nc1F)C1(Cl)CC1 (centres unmarked) [I-554] | 2.15^[a]
41 | COC(Cn1cncc1C#N)c1ccc(Oc2ccc(Br)cc2)cc1Br (centres unmarked) [I-63] | 4.20^[a]
42 | C=CCOC(Cn1cncc1C#N)c1ccc(Oc2ccc(Br)cc2)cc1C(F)(F)F (centres unmarked) [I-89] | 4.69^[a]
43 | CC(=O)c1cncn1CC(C)(O)c1ccc(Oc2ccc(Br)cc2)cc1F (centres unmarked) [I-190] | 2.75^[a]
44 | N#Cc1cncn1CC(O)(c1ccc(Br)nc1Cl)C1(F)CC1 (centres unmarked) [I-683] | 2.01^[a]
45 | N#Cc1cncn1CC(O)(c1c(Cl)ccc(Cl)c1F)C1(F)CC1 (centres unmarked) [I-564] | 2.39^[a]
46 | N#Cc1cncn1CC(O)(c1ccc(C#CC2CC2)cc1Cl)C1(Cl)CC1 (centres unmarked) [I-361] | 3.25^[a]
47 | N#Cc1cncn1CC(O)(CC1CC1)c1ccc(F)c(F)c1 (centres unmarked) [I-489] | 2.30^[a]
48 | N#Cc1cncn1CC(O)(c1ccc(F)cc1C(F)(F)F)C1(F)CC1 (centres unmarked) [I-382] | 2.46^[a]
49 | CCCCC(O)(Cn1cncc1C#N)c1ccc(Cl)cc1F (centres unmarked) [I-263] | 3.19^[a]

The next lines start with the values.

Row | LogP | SMILES
50 | 2.92^[a] | CC(C)C(O)(Cn1cncc1C#N)c1ccc(Cl)cc1Cl (centres unmarked) [I-300]
51 | 1.99^[a] | COc1ccc(C(O)(Cn2cncc2C#N)C2(F)CC2)c(Cl)n1 (centres unmarked) [I-549]
52 | 2.54^[a] | N#Cc1cncn1CC(O)(c1ccc(F)c(Br)c1F)C1(Cl)CC1 (centres unmarked) [I-616]
53 | 2.39^[a] | OC(Cn1cncc1F)c1ccc(Oc2ccc(Cl)cc2)cc1C(F)(F)F (centres unmarked) [I-98]
54 | 2.86^[a] | CC(O)(Cn1cncc1Cl)c1ccc(Oc2ccc(Cl)cc2)cc1Cl (centres unmarked) [I-167]
55 | 3.15^[a] | CCCC(C)C(O)(Cn1cncc1C#N)c1ccc(Cl)cc1 (single isomer, unassigned) [I-328]
56 | 2.45^[a] | OC(Cn1cncc1Cl)c1ccc(Oc2ccc(Cl)cc2)cc1C(F)F (centres unmarked) [I-71]
57 | 3.29^[a] | CC(C)(C)c1ccc(C(O)(Cn2cncc2C#N)C2(Cl)CC2)cc1 (centres unmarked) [I-247]
58 | 4.27^[a] | COC(Cn1cncc1C#N)c1ccc(Oc2ccc(C(F)(F)F)cc2)cc1C(F)(F)F (centres unmarked) [I-67]
59 | 3.13^[a] | CCCC(O)(Cn1cncc1C#N)c1ccc(Cl)cc1Br (centres unmarked) [I-409]
60 | 1.80^[a] | OC(Cn1cncc1F)c1ccc(Oc2ccc(C(F)F)cc2)nc1Cl (centres unmarked) [I-102]
61 | 2.74^[a] | N#Cc1cncn1CC(O)(c1cc(Cl)c(F)c(Cl)c1)C1(F)CC1 (centres unmarked) [I-477]
62 | 2.90^[a] | N#Cc1cncn1CC(O)(CC1CC1)c1ccc(C(F)(F)F)cc1Br (centres unmarked) [I-436]
63 | 2.32^[a] | N#Cc1cncn1CC(O)c1cnc(Oc2ccc(Cl)nc2)cc1C(F)(F)F (centres unmarked) [I-152]
64 | 3.64^[a] | CC(O)(Cn1cncc1C#N)c1ccc(Oc2ccc(C(F)(F)F)cc2)cc1C(F)(F)F (centres unmarked) [I-206]
65 | 2.70^[a] | C[Si](C)(C)C#CC(O)(CC1CC1)Cn1cncc1C#N (centres unmarked) [I-454]
66 | 2.43^[a] | N#Cc1cncn1CC(O)c1cnc(Oc2ccc(Br)cc2)cc1C(F)F (centres unmarked) [I-134]
67 | 2.82^[a] | CC(O)(Cn1cncc1Cl)c1ccc(Oc2ccc(Cl)cc2)cc1Br (centres unmarked) [I-171]
68 | 2.30^[a] | CC(O)(Cn1cncc1F)c1cnc(Oc2ccc(Cl)cc2)cc1C(F)(F)F (centres unmarked) [I-240]
69 | 3.06^[a] | O=C(Cn1cncc1F)c1ccc(Oc2ccc(S(F)(F)(F)(F)F)cc2)nc1C(F)(F)F [IX-136]

Row | LogP | SMILES
70 | 2.92^[a] | N#Cc1cncn1CC(O)(C#CC1CCc2ccccc21)C1(Cl)CC1 (centres unmarked) [I-602]
71 | 2.60^[a] | N#Cc1cncn1CC(O)(c1ccc(Cl)c(F)c1F)C1(Cl)CC1 (centres unmarked) [I-629]
72 | 2.86^[a] | N#Cc1cncn1CC(O)(CC1CC1)c1ccc(Cl)c(Br)c1 (centres unmarked) [I-533]
73 | 3.65^[a] | COC(Cn1cncc1C#N)c1ccc(Oc2ccc(Cl)cc2)cc1F (centres unmarked) [I-60]
74 | 2.75^[a] | CCCC(O)(Cn1cncc1C#N)c1ccc(F)cc1Br (centres unmarked) [I-408]
75 | 2.22^[a] | N#Cc1cncn1CC(O)(c1ccc(F)cc1Cl)C1(F)CC1 (centres unmarked) [I-349]
76 | 3.00^[a] | CC(C)(C)C(O)(Cn1cncc1C#N)c1ccc(Cl)cc1F (centres unmarked) [I-342]
77 | 2.36^[a] | N#Cc1cncn1CC(O)(c1ccc(Cl)cc1F)C1(F)CC1 (centres unmarked) [I-356]
78 | 2.28^[a] | OC(Cn1cncc1F)c1ccc(Oc2ccc(Cl)cc2)cc1Cl (centres unmarked) [I-46]
79 | 3.12^[a] | N#Cc1cncn1CC(O)c1ccc(Oc2ccc(OC(F)(F)F)cc2)nc1C(F)(F)F (centres unmarked) [I-137]
80 | 3.33^[a] | N#Cc1cncn1CC(O)(C#CCC1CCCCC1)CC1CC1 (centres unmarked) [I-593]
81 | 2.71^[a] | N#Cc1cncn1CC(O)(c1ccc(Cl)c(Br)c1)C1(F)CC1 (centres unmarked) [I-538]
82 | 3.04^[a] | C[Si](C)(C#CC(O)(Cn1cncc1C#N)C1(F)CC1)c1ccccc1 (centres unmarked) [I-595]
83 | 2.66^[a] | N#Cc1cncn1CC(O)(c1cc(Cl)cc(Cl)c1Cl)C1(F)CC1 (centres unmarked) [I-612]
84 | 2.16^[a] | N#Cc1cncn1CC(O)(c1cc(F)ccc1Cl)C1(F)CC1 (centres unmarked) [I-439]
85 | 3.50^[a] | C[Si](C)(C)CC(O)(Cn1cncc1C#N)c1ccccc1Br (centres unmarked) [I-307]
86 | 2.28^[a] | N#Cc1cncn1CC(O)(c1ccc(F)cc1F)C1(Cl)CC1 (centres unmarked) [I-355]
87 | 2.44^[a] | CC(O)(Cn1cncc1C#N)c1ccc(Oc2ccc(Br)nc2)nc1C(F)(F)F (centres unmarked) [I-364]
88 | 3.37^[a] | CC(C)(C)C(O)(Cn1cncc1C#N)c1ccc(Cl)cc1Cl (centres unmarked) [I-310]
89 | 2.59^[a] | OC(Cn1cncc1F)c1ccc(Oc2ccc(S(F)(F)(F)(F)F)cc2)nc1C(F)(F)F (centres unmarked) [I-147]
